Activity calls are given as the source filed them. The calls are words filed in the database; no cut-off is given here.
Legend:
Integrin alpha-V/beta-3 [1] = target: T1, Integrin alpha-V/beta-3 (Homo sapiens, UniProt P05106+P06756); assay: Binding affinity to human integrin alphaVbeta3 incubated for 1 hr by ELISA based solid phase integrin binding assay; type: protein-complex assay
Integrin alpha-5/beta-1 = Integrin alpha-5/beta-1 (Homo sapiens, UniProt P05556+P08648); assay: Binding affinity to human integrin alpha5beta1 incubated for 1 hr by ELISA based solid phase integrin binding assay; type: protein-complex assay
Integrin alpha-5/beta-1, sequence (P05556 21-798 limits assumed): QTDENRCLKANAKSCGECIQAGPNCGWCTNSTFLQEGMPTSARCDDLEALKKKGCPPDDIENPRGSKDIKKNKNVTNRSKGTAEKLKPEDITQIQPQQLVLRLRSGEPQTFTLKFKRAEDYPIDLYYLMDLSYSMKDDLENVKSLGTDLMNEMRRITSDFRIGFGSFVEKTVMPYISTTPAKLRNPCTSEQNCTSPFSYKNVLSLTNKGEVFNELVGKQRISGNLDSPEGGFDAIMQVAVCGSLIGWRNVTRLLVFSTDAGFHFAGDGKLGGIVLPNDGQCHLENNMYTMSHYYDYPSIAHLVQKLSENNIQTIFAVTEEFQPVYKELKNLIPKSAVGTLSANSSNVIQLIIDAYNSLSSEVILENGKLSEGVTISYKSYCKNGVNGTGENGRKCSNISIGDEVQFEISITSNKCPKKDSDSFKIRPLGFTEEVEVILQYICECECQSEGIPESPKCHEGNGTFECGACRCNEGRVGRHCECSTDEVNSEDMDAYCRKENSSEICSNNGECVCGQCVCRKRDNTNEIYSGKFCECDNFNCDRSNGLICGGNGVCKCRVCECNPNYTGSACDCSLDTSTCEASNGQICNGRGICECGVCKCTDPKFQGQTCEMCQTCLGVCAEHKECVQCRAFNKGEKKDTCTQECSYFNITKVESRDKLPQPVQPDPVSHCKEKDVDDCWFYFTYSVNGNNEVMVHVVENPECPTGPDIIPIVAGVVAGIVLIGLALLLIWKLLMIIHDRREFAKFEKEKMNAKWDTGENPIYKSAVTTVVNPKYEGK
Integrin alpha-5/beta-1, sequence (P08648 42-894 limits assumed): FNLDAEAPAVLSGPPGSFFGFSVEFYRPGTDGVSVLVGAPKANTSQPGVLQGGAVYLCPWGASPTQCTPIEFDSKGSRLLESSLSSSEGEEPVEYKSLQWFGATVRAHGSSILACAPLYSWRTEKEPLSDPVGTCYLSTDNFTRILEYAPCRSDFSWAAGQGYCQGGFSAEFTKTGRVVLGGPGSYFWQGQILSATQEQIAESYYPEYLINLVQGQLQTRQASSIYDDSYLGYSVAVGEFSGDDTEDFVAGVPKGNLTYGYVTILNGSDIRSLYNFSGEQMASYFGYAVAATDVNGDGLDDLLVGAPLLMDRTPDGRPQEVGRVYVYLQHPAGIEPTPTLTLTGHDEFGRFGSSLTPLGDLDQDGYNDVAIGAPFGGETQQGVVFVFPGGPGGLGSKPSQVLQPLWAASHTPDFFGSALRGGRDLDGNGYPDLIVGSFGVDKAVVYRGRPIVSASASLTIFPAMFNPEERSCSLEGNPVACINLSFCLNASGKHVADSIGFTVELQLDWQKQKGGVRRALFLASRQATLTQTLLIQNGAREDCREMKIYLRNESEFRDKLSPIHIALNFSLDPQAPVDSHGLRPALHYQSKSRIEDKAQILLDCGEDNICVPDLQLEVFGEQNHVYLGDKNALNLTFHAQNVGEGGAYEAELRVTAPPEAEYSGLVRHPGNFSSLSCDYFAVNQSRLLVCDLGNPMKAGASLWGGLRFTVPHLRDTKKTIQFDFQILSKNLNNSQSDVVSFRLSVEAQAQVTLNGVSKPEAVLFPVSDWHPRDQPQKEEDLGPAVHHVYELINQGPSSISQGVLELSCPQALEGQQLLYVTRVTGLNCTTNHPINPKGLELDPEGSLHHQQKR
Integrin alpha-5/beta-1, sequence (P08648 895-1049 limits assumed): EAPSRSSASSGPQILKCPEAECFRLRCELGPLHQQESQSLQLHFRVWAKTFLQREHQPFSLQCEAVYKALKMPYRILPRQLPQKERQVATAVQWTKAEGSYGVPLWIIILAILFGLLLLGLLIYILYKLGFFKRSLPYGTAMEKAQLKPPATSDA

[2] = Selectivity index, ratio of IC50 for binding affinity to human integrin alpha5beta1 to IC50 for binding affinity to human integrin alphaVbeta3
KB = assay: Cytotoxicity in human KB cells; type: functional, cell-based; conditions: for IC50: Homo sapiens, KB
[3] = target: Integrin alpha-IIb/beta-3 (Homo sapiens, UniProt P05106+P08514); assay: Binding affinity to human integrin alpha2bbeta3 incubated for 1 hr by ELISA based solid phase integrin binding assay; type: protein complex
Integrin alpha-V/beta-8 = Integrin alpha-V/beta-8 (Homo sapiens, UniProt P06756+P26012); assay: Binding affinity to human integrin alphaVbeta8 incubated for 1 hr by ELISA based solid phase integrin binding assay; type: protein-complex assay
Integrin alpha-V/beta-8, sequence (P06756 31-889 limits assumed): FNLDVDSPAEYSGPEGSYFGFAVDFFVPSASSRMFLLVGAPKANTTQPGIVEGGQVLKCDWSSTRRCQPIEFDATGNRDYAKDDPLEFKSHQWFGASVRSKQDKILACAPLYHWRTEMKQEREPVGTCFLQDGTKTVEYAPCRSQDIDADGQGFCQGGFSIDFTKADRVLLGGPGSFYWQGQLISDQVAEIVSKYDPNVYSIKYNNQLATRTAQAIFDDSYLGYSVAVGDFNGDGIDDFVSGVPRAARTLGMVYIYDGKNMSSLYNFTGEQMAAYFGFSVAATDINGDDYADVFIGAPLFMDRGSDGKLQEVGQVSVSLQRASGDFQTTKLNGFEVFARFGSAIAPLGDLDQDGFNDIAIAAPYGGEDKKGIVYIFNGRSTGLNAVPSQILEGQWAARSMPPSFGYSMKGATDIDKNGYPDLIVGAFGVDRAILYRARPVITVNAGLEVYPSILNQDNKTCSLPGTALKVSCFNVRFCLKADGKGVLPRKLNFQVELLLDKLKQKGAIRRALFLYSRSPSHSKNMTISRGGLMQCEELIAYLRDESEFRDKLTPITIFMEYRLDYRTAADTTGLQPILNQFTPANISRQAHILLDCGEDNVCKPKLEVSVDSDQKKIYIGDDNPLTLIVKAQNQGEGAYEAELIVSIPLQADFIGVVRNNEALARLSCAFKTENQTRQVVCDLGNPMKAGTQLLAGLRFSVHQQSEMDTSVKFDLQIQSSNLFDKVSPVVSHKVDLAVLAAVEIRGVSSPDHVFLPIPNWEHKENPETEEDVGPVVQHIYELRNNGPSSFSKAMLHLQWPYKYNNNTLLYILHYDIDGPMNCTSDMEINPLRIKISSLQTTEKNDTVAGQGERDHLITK
Integrin alpha-V/beta-8, sequence (P06756 891-1048 limits assumed): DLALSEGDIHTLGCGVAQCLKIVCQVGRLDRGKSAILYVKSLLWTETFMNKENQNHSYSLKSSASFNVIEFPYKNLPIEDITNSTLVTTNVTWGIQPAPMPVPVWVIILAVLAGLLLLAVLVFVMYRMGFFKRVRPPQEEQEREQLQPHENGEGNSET
Integrin alpha-V/beta-8, sequence (P26012 43-769 limits assumed): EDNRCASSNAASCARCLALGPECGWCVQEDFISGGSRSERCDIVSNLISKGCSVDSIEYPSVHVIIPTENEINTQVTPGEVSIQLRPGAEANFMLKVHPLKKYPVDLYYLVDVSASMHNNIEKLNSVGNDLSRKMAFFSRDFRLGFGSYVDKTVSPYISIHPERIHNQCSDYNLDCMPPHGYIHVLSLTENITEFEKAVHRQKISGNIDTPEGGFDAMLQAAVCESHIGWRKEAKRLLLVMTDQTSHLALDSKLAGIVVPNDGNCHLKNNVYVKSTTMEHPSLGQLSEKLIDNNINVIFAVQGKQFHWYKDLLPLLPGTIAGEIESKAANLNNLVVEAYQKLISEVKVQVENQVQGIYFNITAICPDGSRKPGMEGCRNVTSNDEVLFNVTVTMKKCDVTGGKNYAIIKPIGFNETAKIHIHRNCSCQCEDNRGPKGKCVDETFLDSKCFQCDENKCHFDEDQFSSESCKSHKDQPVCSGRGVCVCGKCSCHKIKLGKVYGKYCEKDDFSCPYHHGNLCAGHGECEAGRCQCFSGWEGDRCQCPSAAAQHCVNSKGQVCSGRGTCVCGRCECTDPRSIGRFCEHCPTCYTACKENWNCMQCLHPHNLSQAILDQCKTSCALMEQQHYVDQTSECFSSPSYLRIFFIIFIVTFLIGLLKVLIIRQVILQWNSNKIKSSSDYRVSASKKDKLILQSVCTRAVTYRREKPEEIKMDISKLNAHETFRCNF

Integrin alpha-V/beta-6 = Integrin alpha-V/beta-6 (Homo sapiens, UniProt P06756+P18564); assay: Binding affinity to human integrin alphaVbeta6 incubated for 1 hr by ELISA based solid phase integrin binding assay; type: protein-complex assay
Integrin alpha-V/beta-6, sequence (P06756 31-889 limits assumed): as the sequence (P06756 31-889 limits assumed) above
Integrin alpha-V/beta-6, sequence (P06756 891-1048 limits assumed): as the sequence (P06756 891-1048 limits assumed) above
Integrin alpha-V/beta-6, sequence (P18564 22-788 limits assumed): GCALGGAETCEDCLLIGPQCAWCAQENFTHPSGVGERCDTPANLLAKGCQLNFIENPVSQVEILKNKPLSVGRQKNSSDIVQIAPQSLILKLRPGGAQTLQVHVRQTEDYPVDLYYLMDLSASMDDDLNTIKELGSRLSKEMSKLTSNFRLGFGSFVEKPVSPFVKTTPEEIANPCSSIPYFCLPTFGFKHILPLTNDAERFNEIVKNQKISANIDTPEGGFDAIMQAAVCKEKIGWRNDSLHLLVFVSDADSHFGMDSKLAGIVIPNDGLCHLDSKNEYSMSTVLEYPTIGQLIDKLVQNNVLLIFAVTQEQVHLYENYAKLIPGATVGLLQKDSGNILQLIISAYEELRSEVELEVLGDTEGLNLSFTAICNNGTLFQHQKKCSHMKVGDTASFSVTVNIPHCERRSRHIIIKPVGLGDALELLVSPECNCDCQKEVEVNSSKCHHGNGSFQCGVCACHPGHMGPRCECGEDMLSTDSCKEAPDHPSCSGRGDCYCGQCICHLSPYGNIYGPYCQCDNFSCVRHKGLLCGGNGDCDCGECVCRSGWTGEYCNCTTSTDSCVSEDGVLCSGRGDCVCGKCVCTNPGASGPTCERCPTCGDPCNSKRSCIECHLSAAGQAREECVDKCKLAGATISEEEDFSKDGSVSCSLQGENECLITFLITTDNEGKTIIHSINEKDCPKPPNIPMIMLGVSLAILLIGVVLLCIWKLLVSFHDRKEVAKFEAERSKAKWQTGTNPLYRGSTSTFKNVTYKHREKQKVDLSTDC

Integrin alpha-V/beta-3 [4] = target: T1, Integrin alpha-V/beta-3; assay: Binding affinity to integrin alphaVbeta3 expressed in human M21 cells at 250 uM incubated for 30 mins by confocal microscopy; type: cell-based

Row | IC50 (Integrin alpha-V/beta-3 [1]) [nM] | IC50 (Integrin alpha-5/beta-1) [nM] | Ratio IC50 [2] | Compound | other results
1 | 1.15 | 9.9 | 8.6 | CC(C)[C@@H]1NC(=O)[C@@H](Cc2c[nH]c3ccccc23)NC(=O)[C@H](CC(=O)O)NC(=O)CNC(=O)[C@H](CCCNC(=N)N)NC1=O | –
2 | 0.53 | 472 | 891 | CC(C)[C@H]1NC(=O)[C@H](Cc2c[nH]c3c(Br)cccc23)NC(=O)[C@H](CC(=O)O)NC(=O)CNC(=O)[C@H](CCCNC(=N)N)NC1=O | –
3 | 311 | > 10000 | – | CC(C)[C@@H]1C(=O)N[C@@H](CCCNC(=N)N)C(=O)NCC(=O)N[C@@H](CC(=O)O)C(=O)N[C@@H](Cc2c[nH]c3c(Br)cccc23)C(=O)N1C | –
4 | 0.35 | 58.3 | 167 | CC(C)[C@@H]1NC(=O)[C@@H](Cc2c[nH]c3c(F)cccc23)NC(=O)[C@H](CC(=O)O)NC(=O)CNC(=O)[C@H](CCCNC(=N)N)NC1=O | –
5 | 0.43 | 49.2 | 114 | CC(C)[C@@H]1NC(=O)[C@@H](Cc2c[nH]c3c(I)cccc23)NC(=O)[C@H](CC(=O)O)NC(=O)CNC(=O)[C@H](CCCNC(=N)N)NC1=O | –
6 | 0.34 | 91.3 | 269 | CC(C)[C@@H]1NC(=O)[C@@H](Cc2c[nH]c3c(Cl)cccc23)NC(=O)[C@H](CC(=O)O)NC(=O)CNC(=O)[C@H](CCCNC(=N)N)NC1=O | –
7 | 0.74 | 66 | 89 | COc1ccc(-c2cccc3c(C[C@H]4NC(=O)[C@H](CC(=O)O)NC(=O)CNC(=O)[C@H](CCCNC(=N)N)NC(=O)[C@H](C(C)C)NC4=O)c[nH]c23)cc1 | IC50 [3]: > 10000 nM; IC50 (Integrin alpha-V/beta-8): 76.5 nM; IC50 (Integrin alpha-V/beta-6): 50 nM

Further lines, the compound ahead of its results:

Row | Compound | IC50 (Integrin alpha-V/beta-3 [1]) [nM] | IC50 (Integrin alpha-5/beta-1) [nM] | Ratio IC50 [2] | other results
8 | CC(C)[C@@H]1NC(=O)[C@@H](Cc2c[nH]c3c(Br)cccc23)NC(=O)[C@H](CC(=O)O)NC(=O)CNC(=O)[C@H](CCCNC(=N)N)NC1=O | 0.62 | 74.3 | 120 | –
9 | CC(C)[C@H]1C(=O)N[C@@H](CCCNC(=N)N)C(=O)NCC(=O)N[C@@H](CC(=O)O)C(=O)N[C@H](Cc2c[nH]c3c(Br)cccc23)C(=O)N1C | 1.37 | 10.2 | 7.4 | –
10 | O=[N+]([O-])/C=C1\NCCN1Cc1cccnc1 | – | – | – | LC90 (KB): 8 ppm
11 | CC(C)[C@@H]1NC(=O)[C@@H](Cc2c[nH]c3c(-c4cccc(N)c4)cccc23)NC(=O)[C@H](CC(=O)O)NC(=O)CNC(=O)[C@H](CCCNC(=N)N)NC1=O | 0.52 | 610 | 1170 | IC50 [3]: > 10000 nM; IC50 (Integrin alpha-V/beta-8): 220 nM; IC50 (Integrin alpha-V/beta-6): 36 nM
12 | O=[N+]([O-])/C=C1\NCCN1Cc1ccc(F)nc1 | – | – | – | LC90 (KB): 0.32 ppm
13 | CC(C)[C@@H]1NC(=O)[C@@H](Cc2c[nH]c3cc(Cl)ccc23)NC(=O)[C@H](CC(=O)O)NC(=O)CNC(=O)[C@H](CCCNC(=N)N)NC1=O | 0.24 | 39.1 | 163 | –
14 | CC(C)[C@@H]1NC(=O)[C@@H](Cc2c[nH]c3cc(Br)ccc23)NC(=O)[C@H](CC(=O)O)NC(=O)CNC(=O)[C@H](CCCNC(=N)N)NC1=O | 0.53 | 43.3 | 82 | –
15 | O=[N+]([O-])/C=C1\NCCN1Cc1ccc(Br)nc1 | – | – | – | LC90 (KB): 1.6 ppm
16 | CC(C)[C@@H]1NC(=O)[C@@H](Cc2c[nH]c3c(-c4c5ccccc5cc5ccccc45)cccc23)NC(=O)[C@H](CC(=O)O)NC(=O)CNC(=O)[C@H](CCCNC(=N)N)NC1=O | 0.59 | 471 | 798 | IC50 [3]: > 10000 nM; IC50 (Integrin alpha-V/beta-8): 193 nM; IC50 (Integrin alpha-V/beta-6): 32 nM
17 | CC(C)[C@@H]1NC(=O)[C@@H](Cc2c[nH]c3c(-c4ccc5ccc6cccc7ccc4c5c67)cccc23)NC(=O)[C@H](CC(=O)O)NC(=O)CNC(=O)[C@H](CCCNC(=N)N)NC1=O | – | – | 407 | IC50 [3]: > 10000 nM; IC50 (Integrin alpha-V/beta-8): 1010 nM; Activity (Integrin alpha-V/beta-3 [4]): Active; IC50 (Integrin alpha-V/beta-6): 299 nM
18 | O=[N+]([O-])/C=C1\NCCN1Cc1ccc(Cl)nc1 | – | – | – | LC90 (KB): 0.32 ppm
19 | COc1ccc(C[C@H]2NC(=O)/C=C/C[C@@H]([C@H](C)[C@@H]3O[C@H]3c3ccccc3)OC(=O)[C@H](CC(C)C)OC(=O)C(C)(C)CNC2=O)cc1Cl | – | – | – | IC50 (KB): 0.009 nM
20 | COc1ccc(C[C@H]2NC(=O)/C=C/C[C@@H]([C@H](C)[C@@H]3O[C@H]3c3ccccc3)OC(=O)[C@H](CC(C)C)OC(=O)C(C)(C)CNC2=O)cc1 | – | – | – | IC50 (KB): 0.073 nM
21 | CC(C)[C@@H]1NC(=O)[C@@H](Cc2c[nH]c3c(-c4ccc(C(=O)O)cc4)cccc23)NC(=O)[C@H](CC(=O)O)NC(=O)CNC(=O)[C@H](CCCNC(=N)N)NC1=O | 0.52 | 22 | 42 | IC50 [3]: > 10000 nM; IC50 (Integrin alpha-V/beta-8): 39.2 nM; IC50 (Integrin alpha-V/beta-6): 54 nM
